Where “and” joins values, the source holds several entries; their conditions need not be identical. Identical values can stand only once.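 These data come from cells grown in 96-well plates and exposed to compound for 48 hours at five concentrations. GI50: concentration for 50% inhibition of growth. TGI denotes the concentration required for complete inhibition of growth.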
Experiments:
Experiment in all cases: NCI anticancer screen, dose series, 48 h
NCI-H460 lung = system: NCI-H460 lung
EKVX NSCLC = system: EKVX NSCLC
PC-3 prostate = system: PC-3 prostate
MDA-MB-231 breast = system: MDA-MB-231 breast
OVCAR-8 ovarian = system: OVCAR-8 ovarian
MALME-3M melanoma = system: MALME-3M melanoma
SF-539 CNS = system: SF-539 CNS
DU-145 prostate = system: DU-145 prostate
UACC-257 melanoma = system: UACC-257 melanoma
HCT-116 colon = system: HCT-116 colon
OVCAR-3 ovarian = system: OVCAR-3 ovarian
COLO 205 colon = system: COLO 205 colon
UO-31 renal = system: UO-31 renal
SF-268 CNS = system: SF-268 CNS
SF-295 CNS = system: SF-295 CNS
NCI-H226 lung = system: NCI-H226 lung
ACHN renal = system: ACHN renal
OVCAR-4 ovarian = system: OVCAR-4 ovarian
SK-MEL-2 melanoma = system: SK-MEL-2 melanoma
HS 578T breast = system: HS 578T breast
SNB-19 CNS = system: SNB-19 CNS
RXF 393 renal = system: RXF 393 renal
SK-MEL-28 melanoma = system: SK-MEL-28 melanoma
RPMI-8226 leukemia = system: RPMI-8226 leukemia
TK-10 renal = system: TK-10 renal
786-0 renal = system: 786-0 renal
SK-OV-3 ovarian = system: SK-OV-3 ovarian
NCI/ADR-RES ovarian = system: NCI/ADR-RES ovarian
SNB-75 CNS = system: SNB-75 CNS
SN12C renal = system: SN12C renal
U251 CNS = system: U251 CNS
HCT-15 colon = system: HCT-15 colon
MCF7 breast = system: MCF7 breast
SR leukemia = system: SR leukemia
LOX IMVI melanoma = system: LOX IMVI melanoma
MOLT-4 leukemia = system: MOLT-4 leukemia
NCI-H23 lung = system: NCI-H23 lung
CCRF-CEM leukemia = system: CCRF-CEM leukemia
HOP-92 NSCLC = system: HOP-92 NSCLC
OVCAR-5 ovarian = system: OVCAR-5 ovarian
SK-MEL-5 melanoma = system: SK-MEL-5 melanoma
CAKI-1 renal = system: CAKI-1 renal
NCI-H522 lung = system: NCI-H522 lung
UACC-62 melanoma = system: UACC-62 melanoma
MDA-MB-435 = system: MDA-MB-435
K-562 leukemia = system: K-562 leukemia
IGROV1 ovarian = system: IGROV1 ovarian
A498 renal = system: A498 renal
M14 melanoma = system: M14 melanoma
HCC-2998 colon = system: HCC-2998 colon
HOP-62 NSCLC = system: HOP-62 NSCLC
BT-549 breast = system: BT-549 breast
SW-620 colon = system: SW-620 colon
A549 NSCLC = system: A549 NSCLC
HT29 colon = system: HT29 colon
T-47D breast = system: T-47D breast
HL-60(TB) leukemia = system: HL-60(TB) leukemia
KM12 colon = system: KM12 colon

NC1(c2ccc(-c3nc4ccn5c(=O)[nH]nc5c4cc3-c3ccccc3)cc2)CCC1 was tested, and the GI50 (NCI-H460 lung) was 0.231 µM and 0.679 µM and 1.19 µM, the TGI (NCI-H460 lung) was 17.7 µM and > 10 µM and 18.5 µM and the GI50 (EKVX NSCLC) was 3.65 µM and > 10 µM and 1.41 µM. The TGI (EKVX NSCLC) was 22.8 µM and > 10 µM and 18.5 µM, the GI50 (PC-3 prostate) was 0.0523 µM and 0.135 µM and 0.141 µM and the TGI (PC-3 prostate) was 17 µM and > 10 µM and 17.3 µM. The GI50 (MDA-MB-231 breast) was 10.7 µM and > 10 µM and 13.5 µM, the TGI (MDA-MB-231 breast) was 23.8 µM and > 10 µM and 26.7 µM and the GI50 (OVCAR-8 ovarian) was 12.6 µM and > 10 µM and 14.9 µM. The TGI (OVCAR-8 ovarian) was 28.2 µM and > 10 µM and 30.8 µM, the TGI (MALME-3M melanoma) was 3 µM and > 10 µM and 24.3 µM and the GI50 (SF-539 CNS) was 0.197 µM and 1.71 µM and 1.63 µM. The TGI (SF-539 CNS) was 5.77 µM and > 10 µM and 14 µM, the GI50 (DU-145 prostate) was 13.6 µM and > 10 µM and 13.3 µM and the TGI (DU-145 prostate) was 26.7 µM and > 10 µM and 26.4 µM. The GI50 (UACC-257 melanoma) was 1.54 µM and > 10 µM and 12.7 µM, the TGI (UACC-257 melanoma) was 5.42 µM and > 10 µM and 26.8 µM and the GI50 (HCT-116 colon) was 5.49 µM and > 6.86 µM and 11.3 µM. For the same compound, the TGI (HCT-116 colon) was 19.3 µM and > 10 µM and 27.8 µM, the GI50 (OVCAR-3 ovarian) was 0.607 µM and 0.841 µM and 0.814 µM and the TGI (OVCAR-3 ovarian) was 18.9 µM and > 10 µM and 18.5 µM. For the same compound, the GI50 (COLO 205 colon) was 0.461 µM and 0.651 µM and 1.81 µM, the TGI (COLO 205 colon) was 12.4 µM and > 10 µM and 18.4 µM and the GI50 (UO-31 renal) was 0.765 µM and 0.344 µM and 1.08 µM. The TGI (UO-31 renal) was 18.3 µM and > 10 µM and 3.06 µM, the GI50 (SF-268 CNS) was 12.2 µM and > 10 µM and 12.3 µM and the TGI (SF-268 CNS) was 26.4 µM and > 10 µM and 27 µM. The GI50 (SF-295 CNS) was 0.267 µM and 0.698 µM and 0.611 µM, the TGI (SF-295 CNS) was 5.22 µM and > 10 µM and 13.9 µM and the GI50 (NCI-H226 lung) was 12.2 µM and > 10 µM and 11.6 µM. For the same compound, the TGI (NCI-H226 lung) was 25.9 µM and > 10 µM and 26.4 µM, the GI50 (ACHN renal) was 3.05 µM and > 10 µM and 10.5 µM and the TGI (ACHN renal) was 14.9 µM and > 10 µM and 22.4 µM. For the same compound, the GI50 (OVCAR-4 ovarian) was 5.57 µM and > 10 µM and 14.7 µM, the TGI (OVCAR-4 ovarian) was 14 µM and > 10 µM and 30.5 µM and the GI50 (SK-MEL-2 melanoma) was 14.9 µM and > 10 µM and 15.7 µM. The TGI (SK-MEL-2 melanoma) was 30.2 µM and > 10 µM and 31.4 µM, the GI50 (HS 578T breast) was 0.171 µM and 0.184 µM and 0.28 µM and the TGI (HS 578T breast) was 7.4 µM and > 2.73 µM and 4.3 µM. The GI50 (SNB-19 CNS) was 2.64 µM and 3.84 µM and 5.83 µM, the TGI (SNB-19 CNS) was 15.6 µM and > 10 µM and 20.2 µM and the GI50 (RXF 393 renal) was 0.0971 µM and 0.417 µM and 0.129 µM. For the same compound, the TGI (RXF 393 renal) was 1.37 µM and 5.66 µM and 1.11 µM, the GI50 (SK-MEL-28 melanoma) was 1.27 µM and > 10 µM and 7.49 µM and the TGI (SK-MEL-28 melanoma) was 5.37 µM and > 10 µM and 21.6 µM. For the same compound, the GI50 (RPMI-8226 leukemia) was 7 µM and > 8.21 µM and 6.27 µM, the TGI (RPMI-8226 leukemia) was 23.2 µM and > 10 µM and 28.4 µM and the GI50 (TK-10 renal) was 0.506 µM and 0.477 µM and 0.908 µM. For the same compound, the TGI (TK-10 renal) was 21.2 µM and > 10 µM and 18.4 µM, the GI50 (786-0 renal) was 0.816 µM and 0.697 µM and 1.15 µM and the TGI (786-0 renal) was 11.9 µM and > 9.66 µM and 14.7 µM. For the same compound, the GI50 (SK-OV-3 ovarian) was 0.212 µM and 0.191 µM and 0.449 µM, the TGI (SK-OV-3 ovarian) was 15.1 µM and > 5.49 µM and 14.9 µM and the GI50 (NCI/ADR-RES ovarian) was 11.9 µM and > 10 µM and 12.8 µM. For the same compound, the TGI (NCI/ADR-RES ovarian) was 26.2 µM and > 10 µM and 26.9 µM, the GI50 (SNB-75 CNS) was 0.051 µM and 0.105 µM and 0.12 µM and the TGI (SNB-75 CNS) was 3.35 µM and 2.62 µM and 4.53 µM. The GI50 (SN12C renal) was 6.95 µM and > 10 µM and 10.6 µM, the TGI (SN12C renal) was 21.7 µM and > 10 µM and 22.7 µM and the GI50 (U251 CNS) was 2.34 µM and 2.68 µM and 3.65 µM. For the same compound, the TGI (U251 CNS) was 14.7 µM and > 10 µM and 20 µM, the GI50 (HCT-15 colon) was 2.92 µM and > 6.16 µM and 10.4 µM and the TGI (HCT-15 colon) was 17.5 µM and > 10 µM and 23.9 µM. The TGI (MCF7 breast) was 6.37 µM and > 10 µM and 17.5 µM, the GI50 (SR leukemia) was 7.28 µM and > 4.45 µM and 8.51 µM and the TGI (SR leukemia) was 19.6 µM and 9.81 µM and 33.2 µM. The GI50 (LOX IMVI melanoma) was 4.94 µM and > 6.27 µM and 11.8 µM, the TGI (LOX IMVI melanoma) was 16.5 µM and > 10 µM and 24.6 µM and the GI50 (MOLT-4 leukemia) was 0.353 µM and 0.531 µM and 0.313 µM. The TGI (MOLT-4 leukemia) was 14.1 µM and > 10 µM and 10.9 µM, the GI50 (NCI-H23 lung) was 13.1 µM and > 10 µM and 13.2 µM and the TGI (NCI-H23 lung) was 28.3 µM and > 10 µM and 27.2 µM. For the same compound, the GI50 (CCRF-CEM leukemia) was 0.362 µM and 0.488 µM and 0.402 µM, the TGI (CCRF-CEM leukemia) was 15.6 µM and > 10 µM and 13.7 µM and the GI50 (HOP-92 NSCLC) was 0.035 µM and 0.113 µM and 0.163 µM. For the same compound, the TGI (HOP-92 NSCLC) was 3.5 µM and > 2.63 µM and 5.61 µM, the GI50 (OVCAR-5 ovarian) was 11.6 µM and > 10 µM and 12.6 µM and the TGI (OVCAR-5 ovarian) was 24.7 µM and > 10 µM and 25.7 µM. The GI50 (SK-MEL-5 melanoma) was 2.09 µM and > 10 µM and 11.1 µM, the TGI (SK-MEL-5 melanoma) was 5.79 µM and > 10 µM and 23.2 µM and the GI50 (CAKI-1 renal) was 5.01 µM and > 2.69 µM and 4.86 µM. The TGI (CAKI-1 renal) was 20 µM and > 10 µM and 20.7 µM, the GI50 (NCI-H522 lung) was 7.95 µM and > 10 µM and 11.6 µM and the TGI (NCI-H522 lung) was 23.2 µM and > 10 µM and 26 µM. For the same compound, the GI50 (UACC-62 melanoma) was 0.255 µM and 0.804 µM and 0.811 µM, the TGI (UACC-62 melanoma) was 15.3 µM and > 10 µM and 18 µM and the GI50 (MDA-MB-435) was 5.47 µM and > 10 µM and 10.8 µM. For the same compound, the TGI (MDA-MB-435) was 21.8 µM and > 10 µM and 23 µM, the GI50 (K-562 leukemia) was 5.43 µM and > 5.59 µM and 9.99 µM and the TGI (K-562 leukemia) was 18.2 µM and > 10 µM and 29.1 µM. For the same compound, the GI50 (IGROV1 ovarian) was 0.0878 µM and 0.198 µM and 0.407 µM, the TGI (IGROV1 ovarian) was 13.6 µM and > 10 µM and 9.33 µM and the GI50 (A498 renal) was 0.0411 µM and 0.0426 µM and 0.112 µM. The TGI (A498 renal) was 0.432 µM and 0.319 µM and 0.865 µM, the GI50 (M14 melanoma) was 4.69 µM and > 10 µM and 13.1 µM and the TGI (M14 melanoma) was 9.71 µM and > 10 µM and 28.7 µM. The GI50 (HCC-2998 colon) was 3.35 µM and > 6.01 µM and 3.61 µM, the TGI (HCC-2998 colon) was 18.6 µM and > 10 µM and 19.7 µM and the GI50 (HOP-62 NSCLC) was 3.84 µM and > 10 µM and 10.7 µM. The TGI (HOP-62 NSCLC) was 15.9 µM and > 10 µM and 26.2 µM, the GI50 (BT-549 breast) was 0.462 µM and 0.621 µM and 1.57 µM and the TGI (BT-549 breast) was 13.6 µM and > 10 µM and 16 µM. The GI50 (SW-620 colon) was 14.2 µM and > 10 µM and 15 µM, the TGI (SW-620 colon) was 28.7 µM and > 10 µM and 29.8 µM and the GI50 (A549 NSCLC) was 4.33 µM and 6.07 µM and 7.9 µM. For the same compound, the TGI (A549 NSCLC) was 20.5 µM and > 10 µM and 23.6 µM, the GI50 (HT29 colon) was 1.5 µM and 2.34 µM and 3.02 µM and the TGI (HT29 colon) was 9.7 µM and > 10 µM and 24.6 µM. For the same compound, the GI50 (T-47D breast) was 0.0198 µM and 0.0234 µM and 0.0639 µM, the GI50 (HL-60(TB) leukemia) was 9.79 µM and > 7.36 µM and 12.3 µM and the TGI (HL-60(TB) leukemia) was 27.2 µM and > 10 µM and 28.8 µM. For the same compound, the GI50 (KM12 colon) was 6.86 µM and > 8.08 µM and 12.2 µM and the TGI (KM12 colon) was 20.8 µM and > 10 µM and 25.8 µM.

Reference: PubChem BioAssay (NCI)
